Test results from patent US7598377B2, “Inhibition of phosphoinositide 3-kinase β” (AstraZeneca AB, priority 2002, dated 2009).
Read-outs that look alike come from different tables or passages of the source.

Assays:
p110γ-PI3K = p110γ-PI3K (Homo sapiens, UniProt P48736); experiment: In vitro enzyme assay, p110γ recombinant protein (Biological Example 1); type: biochemical
From the text: Reactions were terminated and lipid products analysed as described above for the other PI 3-kinase isoforms assays.

PI4K = experiment: PI4 kinase assay, immunoprecipitated from platelet lysate; type: biochemical
Experimental: For each immunoprecipitation, 1 mg of lysate was incubated with an anti-p110α (1 μg), anti-p110β (1 μg), anti-p110δ (1 μg) or anti-PI4 kinase antibody (2-5 μg) and 50 μl of a 50% slurry of protein A beads overnight at 4° C. […] For PI4 kinase assays, protein A beads-immune complexes were also washed twice with lysis buffer, prior to two washes with 1× PI4 kinase assay buffer (20 mM Hepes, pH 7.5, 10 mM MgCl2, 0.3% Triton X-100) and the addition of other assay constituents, as described above. All reactions were terminated by the addition of 100 μl 1 M HCl, 200 μl choloroform/methanol (1:1) and 500 μl 2 M KCl and lipids extracted by centrifugation at 15,000×g for 2 minutes. The production of PI3 or PI4 kinase lipid products, PtdIns(3)P and PtdIns(4)P, were confirmed through TLC analysis. The lipid spots were then removed from the TLC plate and the level of radioactivity quantified to accurately determine the level of PtdIns(3)P/PtdIns(4)P production.

HER2 Receptor = HER2 Receptor (Homo sapiens, UniProt P04626); experiment: Tyrosine kinase assay by MDS Pharma Services (Panlabs); type: biochemical
Sequence of HER2 Receptor (P04626 23-1255): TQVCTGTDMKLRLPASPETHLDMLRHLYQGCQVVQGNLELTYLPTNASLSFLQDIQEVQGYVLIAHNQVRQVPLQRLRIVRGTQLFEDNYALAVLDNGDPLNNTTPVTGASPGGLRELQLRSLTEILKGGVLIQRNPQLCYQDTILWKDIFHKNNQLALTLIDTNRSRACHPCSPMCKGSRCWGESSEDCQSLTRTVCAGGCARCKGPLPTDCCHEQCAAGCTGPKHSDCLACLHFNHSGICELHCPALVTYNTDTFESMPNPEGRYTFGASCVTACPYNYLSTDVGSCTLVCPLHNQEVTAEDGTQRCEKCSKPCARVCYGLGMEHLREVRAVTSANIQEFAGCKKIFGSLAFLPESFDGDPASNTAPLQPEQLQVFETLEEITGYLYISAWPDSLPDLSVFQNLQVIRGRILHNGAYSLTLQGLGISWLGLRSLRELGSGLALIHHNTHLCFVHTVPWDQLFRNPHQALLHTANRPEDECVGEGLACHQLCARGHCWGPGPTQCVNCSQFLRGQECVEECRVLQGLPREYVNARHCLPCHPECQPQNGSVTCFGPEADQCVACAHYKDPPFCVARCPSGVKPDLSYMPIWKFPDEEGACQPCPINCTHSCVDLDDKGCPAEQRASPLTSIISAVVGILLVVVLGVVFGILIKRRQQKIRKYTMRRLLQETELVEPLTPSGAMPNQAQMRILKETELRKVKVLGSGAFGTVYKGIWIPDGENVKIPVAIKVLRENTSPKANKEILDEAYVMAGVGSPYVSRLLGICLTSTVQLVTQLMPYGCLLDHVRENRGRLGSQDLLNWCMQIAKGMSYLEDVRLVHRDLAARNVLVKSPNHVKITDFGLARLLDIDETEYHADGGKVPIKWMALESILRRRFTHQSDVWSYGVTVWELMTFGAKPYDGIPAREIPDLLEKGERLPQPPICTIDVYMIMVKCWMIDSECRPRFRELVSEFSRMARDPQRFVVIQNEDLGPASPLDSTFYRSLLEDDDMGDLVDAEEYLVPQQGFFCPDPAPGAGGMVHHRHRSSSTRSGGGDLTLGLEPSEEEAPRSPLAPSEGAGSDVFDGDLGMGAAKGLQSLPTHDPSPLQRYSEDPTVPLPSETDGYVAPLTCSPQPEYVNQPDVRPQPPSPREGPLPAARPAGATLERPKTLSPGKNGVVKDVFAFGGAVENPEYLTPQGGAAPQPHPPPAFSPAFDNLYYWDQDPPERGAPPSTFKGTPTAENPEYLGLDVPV

Insulin Receptor = Insulin Receptor (Homo sapiens, UniProt P06213); experiment: as above; type: biochemical
Sequence of Insulin Receptor (P06213 28-1382, species assumed): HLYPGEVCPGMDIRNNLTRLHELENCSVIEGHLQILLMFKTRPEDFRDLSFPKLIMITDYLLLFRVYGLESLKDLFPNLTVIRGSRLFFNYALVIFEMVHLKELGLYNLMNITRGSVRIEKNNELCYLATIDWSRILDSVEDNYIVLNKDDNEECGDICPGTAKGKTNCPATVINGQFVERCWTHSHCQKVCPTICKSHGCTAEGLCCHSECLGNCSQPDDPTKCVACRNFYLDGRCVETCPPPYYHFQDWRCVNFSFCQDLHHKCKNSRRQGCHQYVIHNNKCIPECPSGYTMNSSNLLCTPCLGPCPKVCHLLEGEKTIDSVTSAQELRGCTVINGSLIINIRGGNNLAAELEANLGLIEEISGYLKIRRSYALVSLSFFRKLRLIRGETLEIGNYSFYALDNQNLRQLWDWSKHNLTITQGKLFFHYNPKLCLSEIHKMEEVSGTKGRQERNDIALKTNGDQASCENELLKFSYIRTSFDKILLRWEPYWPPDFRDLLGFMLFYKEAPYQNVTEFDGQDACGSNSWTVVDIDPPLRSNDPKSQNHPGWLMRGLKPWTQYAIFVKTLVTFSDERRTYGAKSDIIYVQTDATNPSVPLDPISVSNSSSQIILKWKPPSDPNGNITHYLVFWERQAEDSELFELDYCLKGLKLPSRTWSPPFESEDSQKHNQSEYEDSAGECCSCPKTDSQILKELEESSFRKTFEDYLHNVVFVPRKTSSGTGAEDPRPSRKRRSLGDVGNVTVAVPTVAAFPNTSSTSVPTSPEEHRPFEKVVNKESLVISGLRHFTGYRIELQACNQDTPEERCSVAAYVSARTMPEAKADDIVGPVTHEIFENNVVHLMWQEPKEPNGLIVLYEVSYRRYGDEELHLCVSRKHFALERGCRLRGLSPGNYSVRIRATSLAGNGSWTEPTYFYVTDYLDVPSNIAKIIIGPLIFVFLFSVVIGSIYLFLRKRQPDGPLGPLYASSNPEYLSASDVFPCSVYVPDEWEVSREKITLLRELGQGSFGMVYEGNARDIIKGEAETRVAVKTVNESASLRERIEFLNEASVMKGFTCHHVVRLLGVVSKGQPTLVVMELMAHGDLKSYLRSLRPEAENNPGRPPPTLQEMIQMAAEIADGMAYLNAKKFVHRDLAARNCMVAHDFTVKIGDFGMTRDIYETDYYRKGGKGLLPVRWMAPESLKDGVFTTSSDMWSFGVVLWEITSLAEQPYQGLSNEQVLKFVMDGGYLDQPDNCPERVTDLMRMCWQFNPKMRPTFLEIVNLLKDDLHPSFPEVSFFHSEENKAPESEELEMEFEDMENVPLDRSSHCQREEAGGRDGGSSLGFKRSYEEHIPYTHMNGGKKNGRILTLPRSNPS

Casein Kinase 2 = Casein Kinase 2 (Homo sapiens, UniProt P68400); experiment: Ser/Thr kinase assay by MDS Pharma Services (Panlabs); type: biochemical
Sequence of Casein Kinase 2 (P68400 whole entry): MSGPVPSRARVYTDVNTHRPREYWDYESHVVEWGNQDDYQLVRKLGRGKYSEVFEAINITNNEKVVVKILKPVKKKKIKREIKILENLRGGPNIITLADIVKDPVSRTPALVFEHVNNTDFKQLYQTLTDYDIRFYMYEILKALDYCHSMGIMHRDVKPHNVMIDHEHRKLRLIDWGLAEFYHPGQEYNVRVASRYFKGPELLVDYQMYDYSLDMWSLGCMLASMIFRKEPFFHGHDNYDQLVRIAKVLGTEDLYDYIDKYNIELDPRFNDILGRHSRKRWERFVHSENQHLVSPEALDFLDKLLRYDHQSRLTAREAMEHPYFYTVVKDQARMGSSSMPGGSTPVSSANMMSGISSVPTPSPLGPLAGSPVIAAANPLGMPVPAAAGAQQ

Cdk2/cyclin A = Cdk2/cyclin A (Homo sapiens, UniProt P24941); experiment: as above; type: biochemical
ERK1 = ERK1 (Homo sapiens, UniProt P27361); experiment: as above; type: biochemical
Sequence of ERK1 (P27361 whole entry, species assumed): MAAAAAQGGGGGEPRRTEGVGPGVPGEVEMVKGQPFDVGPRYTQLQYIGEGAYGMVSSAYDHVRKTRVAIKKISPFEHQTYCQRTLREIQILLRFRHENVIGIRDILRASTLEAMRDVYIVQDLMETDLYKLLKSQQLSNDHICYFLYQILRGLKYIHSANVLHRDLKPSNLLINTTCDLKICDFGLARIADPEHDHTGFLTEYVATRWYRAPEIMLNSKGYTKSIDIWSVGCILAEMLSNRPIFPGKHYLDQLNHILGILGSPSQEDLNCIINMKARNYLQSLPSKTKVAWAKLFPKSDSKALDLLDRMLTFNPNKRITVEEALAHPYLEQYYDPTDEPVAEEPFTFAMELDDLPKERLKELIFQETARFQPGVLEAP

PKA Non-selective = experiment: as above; type: biochemical
PKC Non-selective = experiment: as above; type: biochemical
CaMK = experiment: as above; type: biochemical
washed platelets [1] = experiment: Shear-induced platelet aggregation (cone & plate device, single platelet count); type: cell-based; conditions: 5 min, vWf 10 μg/ml, 5000 s^−1 for 5 min, read-out: inhibition of shear induced platelet aggregation, IC50
From the text: Platelet samples were aspirated and the level of platelet aggregation determined by analyzing the number of unincorporated single platelets using a […] hematology analyzer. All data were normalized to control experiments and expressed as the proportional increase relative to control samples.

washed platelets [2] = experiment: FACS analysis of integrin αIIbβ3 activation and P-selectin expression; type: cell-based; conditions: induced by thrombin, collagen and ADP; 0.5 μM TGX-221
Experimental: Agonists: Thrombin, 1 U/ml; ADP, […]; U46619, 1 μM; Soluble collagen 10 μg/ml.
Platelets were then stimulated with thrombin (1 U/ml), ADP ([…]), U46619 (1 μM) or collagen (10 μg/ml) for 20 min at room temperature prior to being fixed with 2% paraformaldehyde for 45 min at room temperature. Fixed platelets were washed twice with Tyrode's buffer, incubated with 1 μg/ml FITC-conjugated anti-mouse F(ab)2′ antibody for 15 min at room temperature, washed twice with Tyrode's buffer, resuspended to a final volume of 500 μl in Tyrode's buffer and analyzed by FACS.

[3] = test system: carotid artery occlusive thrombus formation in rabbits; experiment: Modified Folts model in rabbits; type: in vivo, New Zealand White rabbits
Experimental: Studies were approved by the University of Melbourne Animal Ethics Committee in accordance with the guidelines of the National Health & Medical Research Council of Australia. Anaesthesia was induced in Sprague-Dawley rats (260-400 g) with sodium pentobarbitone (Nembutal; 60 mg/kg i.p.; Merial Australia Pty. Ltd., Sydney, NSW, Australia), and in New Zealand White rabbits (2-3 kg) with pentobarbitone (15 mg/kg i.v.) and fentanyl (6 μg/kg i.v.; David Bull Laboratories, Mulgrave, VIC, Australia). Animals were mechanically ventilated (Ugo Basile ventilator, Comerio, VA, Italy) with room air supplemented with O2. Body temperature was maintained throughout the experiment. Arterial blood pressure was measured via a femoral artery catheter connected to a pressure transducer (Model 1050.1, AD Instruments, Sydney, NSW) and a blood flow probe (1 mm i.d. for rats & 2.5 mm i.d. for rabbits; flowmeter […], Transonic Systems Inc., Ithaca, N.Y., USA) was placed around each (control and test) carotid artery; all parameters were recorded on a PowerLab data acquisition system (8SP; AD Instruments). A silk suture was tied loosely around 1 artery, distal to the flow probe, for subsequent stenosis. […] Carotid blood flow was monitored until it reached 0 ml/min, indicating a clot had formed at the site of stenosis. […] Again, carotid blood flow was monitored until it reached 0 ml/min, and the time recorded. […]

rat tail bleeding time = experiment: Tail bleeding studies in rats; type: in vivo
Experimental: Rats were anaesthetised with halothane in room air supplemented with O2. Tail bleeding time was measured 15 min before drug administration (−15), and 5 and 30 min after administration. For experiments involving pretreatment with aspirin and clopidogrel, tail bleeding time was also measured before the first gavage dose at −25 h. Incisions 5 mm long and 1 mm deep were made in the tail at each time point and bleeding was monitored every 30 sec until it had ceased (=tail bleeding time).

Sequence of p110γ-PI3K (P48736 whole entry, canonical isoform): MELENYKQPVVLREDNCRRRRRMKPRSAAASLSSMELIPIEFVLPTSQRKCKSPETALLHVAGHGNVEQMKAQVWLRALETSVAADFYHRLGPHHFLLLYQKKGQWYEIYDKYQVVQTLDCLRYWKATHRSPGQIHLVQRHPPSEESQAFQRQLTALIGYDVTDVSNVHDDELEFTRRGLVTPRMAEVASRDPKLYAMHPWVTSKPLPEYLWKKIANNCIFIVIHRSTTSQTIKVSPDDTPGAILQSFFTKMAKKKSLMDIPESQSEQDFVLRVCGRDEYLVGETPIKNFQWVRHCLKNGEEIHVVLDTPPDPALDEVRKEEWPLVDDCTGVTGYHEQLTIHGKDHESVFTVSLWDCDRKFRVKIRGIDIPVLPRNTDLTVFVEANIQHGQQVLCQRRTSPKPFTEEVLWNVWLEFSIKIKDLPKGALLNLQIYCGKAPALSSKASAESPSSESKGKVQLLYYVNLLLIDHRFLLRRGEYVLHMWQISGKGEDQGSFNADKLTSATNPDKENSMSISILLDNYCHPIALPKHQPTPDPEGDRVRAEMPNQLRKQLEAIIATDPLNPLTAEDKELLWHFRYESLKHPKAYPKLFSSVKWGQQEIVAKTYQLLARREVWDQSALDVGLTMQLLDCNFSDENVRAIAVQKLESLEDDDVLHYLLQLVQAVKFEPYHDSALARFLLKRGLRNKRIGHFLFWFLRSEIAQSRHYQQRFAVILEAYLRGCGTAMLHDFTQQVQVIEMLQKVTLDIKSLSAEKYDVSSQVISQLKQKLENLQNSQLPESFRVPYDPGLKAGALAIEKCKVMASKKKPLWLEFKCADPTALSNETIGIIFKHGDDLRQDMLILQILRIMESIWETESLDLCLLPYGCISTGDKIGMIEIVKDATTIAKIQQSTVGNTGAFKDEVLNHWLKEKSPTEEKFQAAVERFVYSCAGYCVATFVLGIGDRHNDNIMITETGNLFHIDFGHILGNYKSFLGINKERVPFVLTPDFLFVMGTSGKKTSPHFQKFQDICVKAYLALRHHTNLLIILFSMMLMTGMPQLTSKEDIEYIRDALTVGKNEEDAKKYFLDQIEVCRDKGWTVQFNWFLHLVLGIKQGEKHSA

Structure (SMILES): Cc1cc(C(C)Nc2ccccc2)c2nc(N3CCOCC3)cc(=O)n2c1 (racemic) [TGX-221, (±)-7-methyl-2-morpholin-4-yl-9-(1-phenylaminoethyl)-pyrido[1,2-a]pyrimidin-4-one]
- IC50 (p110γ-PI3K; Table I, read-out: inhibitory concentration, gamma): > 5 µM
- IC50 (p110γ-PI3K; read-out: IC50 (μM), p110γ-PI3K): > 10 µM
- IC50 (PI4K): > 10 µM
- inhibitory effect on PI4 kinase (PI4K; in words): minimal inhibitory effect
- IC50 (HER2 Receptor): > 10 µM
- IC50 (Insulin Receptor): > 10 µM
- IC50 (Casein Kinase 2): > 10 µM
- IC50 (Cdk2/cyclin A): > 10 µM
- IC50 (ERK1): > 10 µM
- IC50 (PKA Non-selective): > 10 µM
- IC50 (PKC Non-selective): > 10 µM
- IC50 (CaMK): > 10 µM
- IC50 (washed platelets [1]): 0.05 to 0.1 µM
- integrin αIIbβ3 activation (PAC-1 binding) (washed platelets [2]): unaffected
- animals in which occlusive thrombus formation was immediately abolished ([3]; 2 mg/kg i.v. bolus): 100%
- occlusive thrombus formation ([3]; 2 mg/kg, in words): completely prevented
- bleeding time (rat tail bleeding time; TGX-221 2 mg/kg i.v. in combination with either clopidogrel or aspirin): did not affect bleeding time
- prolonged bleeding time caused by co-administered agents (rat tail bleeding time; TGX-221 2 mg/kg i.v. with aspirin 200 mg/kg p.o.+heparin 100 U/kg i.v.): did not exacerbate
- prolonged bleeding time caused by co-administered agents (rat tail bleeding time; TGX-221 2 mg/kg i.v. with clopidogrel 10 mg/kg p.o.+heparin 100 U/kg i.v.): did not exacerbate
- rat tail bleeding time (rat tail bleeding time; TGX-221 20 mg/kg i.v. alone): unaffected
- rat tail bleeding time (rat tail bleeding time; TGX-221 20 mg/kg i.v. with heparin 100 U/kg i.v.): unaffected
- bleeding time (rat tail bleeding time; administered at >20 fold the minimum therapeutic concentration): did not increase bleeding time
- normal haemostasis as assessed by tail or ear bleeding times (rat tail bleeding time; in words): did not adversely impact
